Experimental data as given in US7524964B2, “Tetrahydrothiopyrano pyrazole cannabinoid modulators” (Janssen Pharmaceutica NV, priority 2005, dated 2009).
Read-outs that look alike come from different tables or passages of the source.

Tests used:
[1] = biological target: human CB1 receptor (Homo sapiens, UniProt P21554); test: Binding assay, cannabinoid CB1 receptor ([3H]-CP-55,940 displacement); parameters: expressed in transfected cells; host or cells: SK-N-MC cells, pcDNA3 CB-1 (human), semi-purified membranes; settings: for inhibition at 0.2 µM: test concentration 0.2 μM (superscript a); for inhibition at 0.2 µM / inhibition at 10 µM / inhibition at 1 µM: read-out: CB1 binding percent inhibition; for inhibition at 10 µM: test concentration 10 μM (superscript c); for inhibition at 1 µM: test concentration 1 μM (superscript b)
Sequence of human CB1 receptor (P21554 whole entry): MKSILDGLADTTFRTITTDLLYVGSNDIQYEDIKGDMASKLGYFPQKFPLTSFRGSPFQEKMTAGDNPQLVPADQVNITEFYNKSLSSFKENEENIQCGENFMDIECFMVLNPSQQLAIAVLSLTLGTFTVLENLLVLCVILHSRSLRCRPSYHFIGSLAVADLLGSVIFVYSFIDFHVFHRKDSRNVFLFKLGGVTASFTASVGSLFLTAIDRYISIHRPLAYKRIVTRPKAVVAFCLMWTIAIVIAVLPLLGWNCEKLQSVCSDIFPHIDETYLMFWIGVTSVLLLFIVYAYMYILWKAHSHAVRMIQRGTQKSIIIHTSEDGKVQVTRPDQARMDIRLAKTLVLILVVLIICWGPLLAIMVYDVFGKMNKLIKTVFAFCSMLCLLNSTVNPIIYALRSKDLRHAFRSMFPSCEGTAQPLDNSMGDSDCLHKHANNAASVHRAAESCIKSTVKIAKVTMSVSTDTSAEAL
Method: (§1) Binding Assay for CB1 or CB2 Agonists or Inverse Agonists
(§2) The human CB-1 and CB-2 receptors were stably expressed in SK-N-MC cells transfected with pcDNA3 CB-1 (human) or pcDNA3 CB-2 (human). The cells were grown in T-180 cell culture flasks under standard cell culture conditions at 37° C. in a 5% CO2 atmosphere. The cells were harvested by trypsinization and homogenized in a homogenization buffer (10 mM Tris, 0.2 mM MgCl2, 5 mM KCl, with protease inhibitors aprotinin, leupeptin, pepstatin A and bacitracin) and centrifuged (2000 g). The supernatant was then centrifuged in 2M sucrose (31,300 g) to produce a semi-purified membrane pellet. The pellet was resuspended in homogenization and store at −80° C.
(§3) On the day of the assay, the pellet was thawed on ice and diluted in assay buffer (50 mM Tris-HCl, 5 mM MgCl2, 2.5 mM EDTA, 0.5 mg/mL fatty acid free bovine serum albumin, pH 7.5). The diluted membrane was added with buffer, test compound or standard and the radioligand [H]^3+-CP-55,940_(0.2 nM) to the wells of a 96-well polypropylene plate. Non-specific binding was measured in wells containing 10 uM WIN 55,212. The plate was covered and incubated for 90 minutes at 30° C. The contents were then aspirated onto a Packard Unifilter G/C filter bottom plate prewet with 0.5% polyethyleneimine. The wells of the polypropylene plate were rinsed and aspirated seven times with a 0.9% saline-0.5% Tween 20 solution. The Unifilter plate was dried, a scintillation cocktail was added to each well and the counts representing binding were quantitated in a TopCount scintillation counter.
(§4) The IC50 binding values for compounds tested were calculated by linear regression and were obtained from studies in which varying compound concentrations were used. Where an IC50 was not obtained, test results are provided as percent inhibition at a test concentration of ^a0.2 μM, ^b1 μM or ^c10 μM.

[2] = biological target: T1, human CB-2 receptor (Homo sapiens, UniProt P34972); test: Binding assay, cannabinoid CB2 receptor ([3H]-CP-55,940 displacement); settings: for inhibition at 0.2 µM / inhibition at 10 µM / inhibition at 1 µM: read-out: CB2 binding percent inhibition; for inhibition at 1 µM: test concentration 1 μM (superscript b)
T1 construct: expressed in transfected cells; host or cells: SK-N-MC cells, pcDNA3 CB-2 (human), semi-purified membranes
T1 sequence (P34972 whole entry): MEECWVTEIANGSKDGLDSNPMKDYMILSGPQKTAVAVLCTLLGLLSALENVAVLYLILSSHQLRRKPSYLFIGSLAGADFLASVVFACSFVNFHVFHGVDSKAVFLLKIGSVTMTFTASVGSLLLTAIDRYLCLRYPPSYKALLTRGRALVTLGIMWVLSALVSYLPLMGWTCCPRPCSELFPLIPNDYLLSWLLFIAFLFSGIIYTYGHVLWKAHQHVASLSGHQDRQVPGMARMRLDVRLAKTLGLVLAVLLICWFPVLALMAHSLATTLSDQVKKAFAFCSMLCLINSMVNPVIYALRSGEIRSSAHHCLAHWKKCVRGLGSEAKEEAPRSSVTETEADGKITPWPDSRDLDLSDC
Method: as §1, §2, §3, §4

[3] = test concentration 0.2 μM (superscript a)
[4] = test concentration 10 μM (superscript c)

| Compound | inhibition at 0.2 µM [2, 3] | IC50 [1] | also measured |
| --- | --- | --- | --- |
| O=C(NN1CCCCC1)c1nn(-c2ccc(F)cc2F)c2c1CS(=O)(=O)C/C2=C\c1ccc(F)cc1 [Cpd 106, (7Z)-1-(2,4-difluoro-phenyl)-7-(4-fluoro-benzylidene)-5,5-dioxo-4,5,6,7-tetrahydro-1H-5λ^6-thiopyrano[4,3-c]pyrazole-3-carboxylic acid piperidin-1-ylamide] | 6% | – | inhibition at 0.2 µM [1]: 32% |
| O=C(NN1CCCC1)c1nn(-c2ccc(Cl)cc2Cl)c2c1CSC/C2=C\c1ccc(F)cc1 [Cpd 56, (7Z)-1-(2,4-dichloro-phenyl)-7-(4-fluoro-benzylidene)-1,4,6,7-tetrahydro-thiopyrano[4,3-c]pyrazole-3-carboxylic acid pyrrolidin-1-ylamide] | 15% | 35 nM | – |
| C[C@@H](NC(=O)/C=C/c1nn(Cc2ccccc2)c2c1C[S+]([O-])CC2)c1ccccc1 (stereo partly drawn) [Cpd 35, (2E)-3-(1-benzyl-5-oxo-4,5,6,7-tetrahydro-1H-5λ^4-thiopyrano[4,3-c]pyrazol-3-yl)-N-[(1R)-1-phenyl-ethyl]-acrylamide] | – | – | inhibition at 10 µM [1]: 4%; inhibition at 10 µM [2, 4]: 28% |
| C[C@H](NC(=O)c1c2c(nn1-c1ccc(Cl)cc1Cl)/C(=C/c1ccc(F)cc1)CS(=O)(=O)C2)c1ccccc1 [Cpd 86, (7Z)-2-(2,4-dichloro-phenyl)-7-(4-fluoro-benzylidene)-5,5-dioxo-4,5,6,7-tetrahydro-2H-5λ^6-thiopyrano[4,3-c]pyrazole-3-carboxylic acid [(1S)-1-phenyl-ethyl]-amide] | 14% | 21 nM | – |
| C[C@@H](NC(=O)c1nn(-c2ccc(Cl)cc2Cl)c2c1CS(=O)(=O)C/C2=C\c1ccc(Cl)o1)c1ccccc1 [Cpd 117, (7Z)-7-(5-chloro-furan-2-ylmethylene)-1-(2,4-dichloro-phenyl)-5,5-dioxo-4,5,6,7-tetrahydro-1H-5λ^6-thiopyrano[4,3-c]pyrazole-3-carboxylic acid [(1R)-1-phenyl-ethyl]-amide] | – | 9 nM | inhibition at 0.2 µM [2]: 18% |
| O=C(N[C@@H]1c2ccccc2C[C@@H]1O)c1nn(-c2ccc(Cl)cc2Cl)c2c1CSC/C2=C\c1ccc(F)cc1 [Cpd 58, (7Z)-1-(2,4-dichloro-phenyl)-7-(4-fluoro-benzylidene)-1,4,6,7-tetrahydro-thiopyrano[4,3-c]pyrazole-3-carboxylic acid [(1R,2S)-2-hydroxy-indan-1-yl]-amide] | – | 40 nM | inhibition at 0.2 µM [2]: 25% |
| C[C@H](NS(=O)(=O)/C=C/c1nn(Cc2ccccc2)c2c1CS(=O)(=O)CC2)c1ccccc1 [Cpd 18, (E)-2-(1-benzyl-5,5-dioxo-4,5,6,7-tetrahydro-1H-5λ^6-thiopyrano[4,3-c]pyrazol-3-yl)-ethenesulfonic acid [(1S)-1-phenyl-ethyl]-amide] | – | – | inhibition at 1 µM [1]: 0%; inhibition at 1 µM [2]: 40% |
| O=C(NN1CCCCC1)c1nn(-c2ccc(Cl)cc2)c2c1CS(=O)(=O)C/C2=C\c1ccc(F)cc1 [Cpd 99, (7Z)-1-(4-chloro-phenyl)-7-(4-fluoro-benzylidene)-5,5-dioxo-4,5,6,7-tetrahydro-1H-5λ^6-thiopyrano[4,3-c]pyrazole-3-carboxylic acid piperidin-1-ylamide] | 12% | – | inhibition at 0.2 µM [1]: 66% |
| O=C(NN1CCCCC1)c1c2c(nn1-c1ccc(Cl)cc1Cl)/C(=C/c1ccc(F)cc1)CS(=O)(=O)C2 [Cpd 83, (7Z)-2-(2,4-dichloro-phenyl)-7-(4-fluoro-benzylidene)-5,5-dioxo-4,5,6,7-tetrahydro-2H-5λ^6-thiopyrano[4,3-c]pyrazole-3-carboxylic acid piperidin-1-ylamide] | 17% | 27 nM | – |
| CCOC(=O)[C@@H]1C2CCC(C2)[C@@H]1NC(=O)c1nn(-c2ccc(F)cc2F)c2c1CS(=O)(=O)C[C@@H]2Cc1cccc(F)c1 (stereo partly drawn) [Cpd 49, (2R,3S)-3-{[1-(2,4-difluoro-phenyl)-(7R)-(3-fluoro-benzyl)-5,5-dioxo-4,5,6,7-tetrahydro-1H-5λ^6-thiopyrano[4,3-c]pyrazole-3-carbonyl]-amino}-bicyclo[2.2.1]heptane-2-carboxylic acid ethyl ester] | 6% | – | inhibition at 0.2 µM [1]: 33% |
| CC(NS(=O)(=O)/C=C/c1c2c(nn1Cc1ccccc1)CC[S+]([O-])C2)c1ccccc1 (centres unmarked) [Cpd 22, (E)-2-(2-benzyl-5-oxo-4,5,6,7-tetrahydro-2H-5λ^4-thiopyrano[4,3-c]pyrazol-3-yl)-ethenesulfonic acid (1-phenyl-ethyl)-amide] | – | – | inhibition at 1 µM [1]: 11%; inhibition at 10 µM [1]: 0%; inhibition at 1 µM [2]: 0%; inhibition at 10 µM [2, 4]: 2% |
| C[C@@H](NC(=O)c1nn(-c2ccc(Cl)cc2Cl)c2c1CS(=O)(=O)C/C2=C\c1ccc(F)cc1)c1ccccc1 [Cpd 66, (7Z)-1-(2,4-dichloro-phenyl)-7-(4-fluoro-benzylidene)-5,5-dioxo-4,5,6,7-tetrahydro-1H-5λ^6-thiopyrano[4,3-c]pyrazole-3-carboxylic acid [(1R)-1-phenyl-ethyl]-amide] | 24% | 4 nM | – |
| COC[C@@H]1CCCN1NC(=O)c1nn(-c2ccc(Cl)cc2Cl)c2c1CS(=O)(=O)C/C2=C\c1ccc(F)cc1 [Cpd 125, (7Z)-1-(2,4-dichloro-phenyl)-7-(4-fluoro-benzylidene)-5,5-dioxo-4,5,6,7-tetrahydro-1H-5λ^6-thiopyrano[4,3-c]pyrazole-3-carboxylic acid [(2S)-2-(methoxymethyl)-pyrrolidin-1-yl]-amide] | 8% | 58 nM | – |
| O=C(NN1CC2CCCC2C1)c1nn(-c2ccc(Cl)cc2)c2c1CSC/C2=C\c1ccc(F)cc1 (centres unmarked) [Cpd 103, (7Z)-1-(4-chloro-phenyl)-7-(4-fluoro-benzylidene)-1,4,6,7-tetrahydro-thiopyrano[4,3-c]pyrazole-3-carboxylic acid (hexahydro-cyclopenta[c]pyrrol-2-yl)-amide] | 5% | – | inhibition at 0.2 µM [1]: 62% |
| C[C@H](NS(=O)(=O)/C=C/c1n[nH]c2c1CSCC2Cc1cccc(F)c1)c1ccccc1 (stereo partly drawn) [Cpd 47, (E)-2-[7-(3-fluoro-benzyl)-1,4,6,7-tetrahydro-thiopyrano[4,3-c]pyrazol-3-yl]-ethenesulfonic acid [(1S)-1-phenyl-ethyl]-amide] | 26% | – | inhibition at 0.2 µM [1]: 24% |
| C[C@@H](NC(=O)c1nn(-c2ccc(Cl)cc2Cl)c2c1C[S+]([O-])C/C2=C\c1ccc(F)cc1)c1ccccc1 (stereo partly drawn) [Cpd 75, (7Z)-1-(2,4-dichloro-phenyl)-7-(4-fluoro-benzylidene)-5-oxo-4,5,6,7-tetrahydro-1H-5λ^4-thiopyrano[4,3-c]pyrazole-3-carboxylic acid [(1R)-1-phenyl-ethyl]-amide] | 2% | 14 nM | – |
| O=C(NNC1CCCCC1)c1nn(-c2ccc(Cl)cc2Cl)c2c1CSC/C2=C\c1ccc(F)cc1 [Cpd 115, (7Z)-1-(2,4-dichloro-phenyl)-7-(4-fluoro-benzylidene)-1,4,6,7-tetrahydro-thiopyrano[4,3-c]pyrazole-3-carboxylic acid N′-cyclohexyl-hydrazide] | 19% | 79 nM | – |
| C[C@H](NC(=O)/C=C/c1nn(Cc2ccccc2)c2c1CS(=O)(=O)CC2)c1ccccc1 [Cpd 36, (2E)-3-(1-benzyl-5,5-dioxo-4,5,6,7-tetrahydro-1H-5λ^6-thiopyrano[4,3-c]pyrazol-3-yl)-N-[(1S)-1-phenyl-ethyl]-acrylamide] | – | – | inhibition at 1 µM [1]: 25.5%; inhibition at 10 µM [1]: 1% |
| CC(NS(=O)(=O)/C=C/c1c2c(nn1Cc1ccccc1)CC[S+]([O-])C2)C1CCCCC1 (centres unmarked) [Cpd 26, (E)-2-(2-benzyl-5-oxo-4,5,6,7-tetrahydro-2H-5λ^4-thiopyrano[4,3-c]pyrazol-3-yl)-ethenesulfonic acid (1-cyclohexyl-ethyl)-amide] | – | – | CB2 binding percent inhibition ([2]; test concentration 10 μM (superscript c), 10 µM): 32%; inhibition at 10 µM [2, 4]: 22% |
| CC(NS(=O)(=O)/C=C/c1nn(Cc2ccccc2)c2c1C[S+]([O-])CC2)c1ccccc1 (centres unmarked) [Cpd 29, (E)-2-(1-benzyl-5-oxo-4,5,6,7-tetrahydro-1H-5λ^4-thiopyrano[4,3-c]pyrazol-3-yl)-ethenesulfonic acid (1-phenyl-ethyl)-amide] | – | – | inhibition at 10 µM [1]: 8% |
